For one substance, viable cells results are on record in patent publication US9868935B2, “Composition and method of stem cells for preservation of cardiac tissue” (CRIOESTAMINAL, SAÚDE E TECNOLOGIA, SA., priority 2012, dated 2018).

The test system of the series is CD34+ cells encapsulated in fibrin gel. As to the kind of experiment: Survival of CD34+ cells encapsulated in fibrin gels in hypoxia and serum deprived conditions. In kind it is cell-based, human. Particulars: LPA-treated. As to the method: In an embodiment, fibrin gels were formed by crosslinking of fibrinogen in the presence of thrombin (both from Sigma-Aldrich). The fibrinogen solution was prepared by dissolving human fibrinogen in Tris-buffered saline (TBS) (preferably, Sigma-Aldrich), pH 7.4 (20 mg/mL), and then sterilized by filtering through a 0.22 μm syringe filter (Acrodisc, Pall, NY, USA). Fresh thrombin solutions were prepared by dissolving human thrombin in TBS at pH 7.4 at a concentration of 50 U/mL. Fibrin gels (200 μL, unless otherwise stated) were prepared by mixing three different components: fibrinogen (10 mg/mL), CaCl2 (preferably, Merck, NJ, USA) ([…]) and thrombin (0.2 U/mL). This solution was allowed to gel at 37° C. and 100% relative humidity.
Injectable scaffolds are very promising vehicles to deliver stem cells for regenerative medicine since they provide a favorable structural support for cell survival and proliferation (Pedroso, D. C., et al., Improved survival, vascular differentiation and wound healing potential of stem cells co-cultured with endothelial cells. PLoS One, 2011. 6(1): p. e16114; Kraehenbuehl, T. P., R. Langer, and L. S. Ferreira, Three-dimensional biomaterials for the study of human pluripotent stem cells. Nat Methods, 2011. 8(9): p. 731-6; Nakamuta, J. S., et al., Cell therapy attenuates cardiac dysfunction post myocardial infarction: effect of timing, routes of injection and a fibrin scaffold. PLoS One, 2009. 4(6): p. e6005.). Several studies have shown that cells transplanted with scaffolds in the cardiac setting improved cell survival, induced angiogenesis and preserved cardiac function after infarction (Nakamuta, J. S., et al., Cell therapy attenuates cardiac dysfunction post myocardial infarction: effect of timing, routes of injection and a fibrin scaffold. PLoS One, 2009. 4(6): p. e6005; Christman, K. L., et al., Fibrin glue alone and skeletal myoblasts in a fibrin scaffold preserve cardiac function after myocardial infarction. Tissue Eng, 2004. 10(3-4): p. 403-9; Kraehenbuehl, T. P., et al., Human embryonic stem cell-derived microvascular grafts for cardiac tissue preservation after myocardial infarction. Biomaterials, 2011. 32(4): p. 1102-9; Kutschka, I., et al., Collagen matrices enhance survival of transplanted cardiomyoblasts and contribute to functional improvement of ischemic rat hearts. Circulation, 2006. 114(1 Suppl): p. I167-73). […] Cell viability was evaluated by flow cytometry using Annexin V/propidium iodide (PI) staining.

For the substance lysophosphatidic acid [LPA], the viable cells was found to be 69.0±0.7% (encapsulated in fibrin gel, hypoxia day 1); 51.1±0.8% (encapsulated in fibrin gel, hypoxia day 3); 76.7±1.5% (non-encapsulated, hypoxia day 1); 37.2±6.6% (non-encapsulated, hypoxia day 3).
